US12522616B2, “Thiazololactam compound as ERK inhibitor and use thereof” (D3 BIO (WUXI) CO., LTD., priority 2019, dated 2026)

Legend:
HT29 tumor cells = assay: Assay of in vitro cell proliferation inhibition (CellTiterGlo); assay type: cell-based; conditions: Homo sapiens, HT-29
Method: Assay Example 2. Assay of In Vitro Cell Proliferation Inhibition
The ability of compounds to inhibit the proliferation of HT29 tumor cells was measured.
The assay compound was dissolved in 100% DMSO to prepare 10 mM stock solution.
• 1) UV light of a biological safety cabin was turned on, and 30 minutes were counted down; • 2) In a 37° C. water bath, RPMI1640 medium and trypsin were preheated; • 3) After completion of the UV irradiation, the biological safety cabin was opened. • The preheated medium, trypsin and phosphate buffered saline (PBS), etc. were wiped with alcohol and placed in the biological safety cabin; • 4) HT29 cells were removed from the incubator, and the old medium was removed in biological safety cabin. 10 ml of PBS was added. The mixture was shaken gently, and then PBS was removed; • 5) 1.5 ml of preheated 0.25% trypsin was added. The culture vessel was shaken horizontally so that the trypsin evenly covered the cells at the bottom, and placed in an incubator for 2 minutes; • 6) Cell digestion was stopped with complete medium, and the cell suspension was pipetted to homogeneity and counted; • 7) According to the result of cell counting, the density of cell suspension was adjusted to 1500 cells per well, and the cell suspension was seeded at 50 μl per well; • 8) The stock solution of compounds was serially diluted in DMSO solution, and compounds were added to cell plate using Tecan; • 9) The compound-added cell plate and CellTiterGlo were equilibrated at room temperature, and 25 microliters of CellTiterGlo was then added to each well. The cell plate was shaken for 1-2 minutes and then allowed to stand for 10 minutes. The signal value was then detected. The data were analyzed using XL-Fit, and the IC50 of each compound was calculated. 4.

ERK2 kinase = ERK2 kinase (Homo sapiens (Human), UniProt P28482); assay: Assay of in vitro kinase activity (33P-ATP filter-binding, MBP substrate); assay type: biochemical; conditions: remaining kinase activity vs DMSO control
Method: Assay Example 1. Assay of In Vitro Kinase Activity
The ability of compounds to inhibit ERK2 kinase activity was measured.
20 mM Hepes (pH 7.5), 10 mM MgCl2, 1 mM ethylenebis(oxyethylenenitrilo)tetraacetic acid (EGTA), 0.02% Brij35, 0.02 mg/mL bovine serum albumin (BSA), 0.1 mM Na3VO4, 2 mM dithiothreitol (DTT), 1% DMSO.
The assay compound was dissolved in 100% DMSO to prepare a stock solution of specific concentration. The compound was serially diluted in DMSO solution using Integra Viaflo Assist smart pipette.
• 1) The substrate MBP was prepared in freshly prepared reaction buffer; • 2) ERK2 kinase was added to the above-mentioned MBP solution and mixed gently; • 3) The compound dissolved in 100% DMSO was added to the kinase reaction system using ultrasound technology (Echo550; nanoliter range), and the mixture was incubated at room temperature for 20 minutes; • 4)^33P-ATP (specific concentration of […]) was added to the reaction system, and the reaction was started at this time; • 5) The mixture was incubated at room temperature for 2 hours; • 6) The amount of radioactivity was detected by filter-binding method; • 7) ERK2 kinase activity was calculated as the ratio of the remaining kinase activity in the assay sample to the kinase activity of the control group (treated by DMSO). Curve was fitted using Prism (GraphPad software) and IC50 values were calculated. 5.

[1] = In vivo DMPK assay in mouse; conditions: female BALB/c mice; for Oral DNAUC (AUCPO/Dose) / bioavailability / Cmax: 3 mg/kg orally; for clearance / Vd / bioavailability / half-life / Cmax: mouse, plasma; for clearance / Vd: iv; for clearance / Vd / bioavailability: 1 mg/kg intravenously; for clearance: read-out: Cl (clearance rate); for Vd: read-out: Vdss (distribution volume); for bioavailability / Cmax: po; for bioavailability: read-out: F % (oral bioavailability); for half-life: single administration, read-out: T1/2 (half-life) (converted); for Cmax: read-out: Cmax (maximum concentration)
Description: Assay Example 3. Assay of In Vivo DMPK
In vivo DMPK assay in mouse
Female BALB/c mice were used as assay animals to determine the blood concentration of compounds and evaluate the pharmacokinetic behavior after a single administration.
Eight healthy adult female BALB/c mice were selected, wherein 4 mice were in the intravenous injection group and 4 mice were in the oral group. The vehicle in the intravenous injection group was 5% DMSO+95% (20% HP-β-CD). The compound to be assayed was mixed with an appropriate amount of vehicle for intravenous injection, vortexed and sonicated to prepare a clear solution of 0.5 mg/mL. The clear solution was filtered by a microporous membrane, and then ready for use. The vehicle in the oral group was 5% DMSO+95% (20% HP-β-CD). The compound to be assayed was mixed with the vehicle, vortexed and sonicated to prepare a solution of 0.3 mg/mL. Mice were administered 1 mg/kg intravenously or 3 mg/kg orally, and then whole blood was collected for a certain period. Plasma was prepared. The drug concentration was analyzed by LC-MS/MS method, and the pharmacokinetic parameters were calculated by Phoenix WinNonlin software (Pharsight, USA).
Note: DMSO: dimethyl sulfoxide; HP-β-CD: hydroxypropyl-β-cyclodextrin.

[2] = system: human non-small cell lung cancer H358 cells; assay: In vivo efficacy in mouse H358 subcutaneous xenograft model; conditions: BALB/c nude mouse, 30 mg/kg PO QD
Method: Animals were monitored daily for health and death. […] Animal deaths and side effects in each group were recorded based on the number of animals in each group. […] 5.

ERK2 kinase, sequence (P28482 whole entry): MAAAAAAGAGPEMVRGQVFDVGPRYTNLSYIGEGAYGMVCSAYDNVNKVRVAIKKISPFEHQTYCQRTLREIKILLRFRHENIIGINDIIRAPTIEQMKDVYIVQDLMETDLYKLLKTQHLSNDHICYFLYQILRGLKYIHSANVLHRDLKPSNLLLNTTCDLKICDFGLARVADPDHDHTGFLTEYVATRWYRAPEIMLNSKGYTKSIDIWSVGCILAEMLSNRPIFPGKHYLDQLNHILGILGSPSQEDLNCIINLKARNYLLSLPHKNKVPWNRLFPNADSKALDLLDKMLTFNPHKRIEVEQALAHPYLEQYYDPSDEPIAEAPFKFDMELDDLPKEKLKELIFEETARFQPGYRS

Compound | IC50 (HT29 tumor cells) | IC50 (ERK2 kinase) | Oral DNAUC (AUCPO/Dose) [1] | Cmax [1] | other results
Cn1nccc1Nc1nccc(-c2nc3c(s2)C(C)(C)N(Cc2cccc(Cl)c2)C3=O)n1 [WX001] | 14 nM | 0.24 nM | 2153 nM · h/mpk | 3360 nM | clearance [1]: 14.3 mL/min/kg; Vd [1]: 1.1 L/kg; bioavailability [1]: 86%; half-life [1]: 54 min
Cn1nccc1Nc1nccc(-c2nc3c(s2)C(C)(C)N(Cc2cccc(F)c2)C3=O)n1 [WX002] | 24 nM | 0.35 nM | – | – | –
Cn1nccc1Nc1nccc(-c2nc3c(s2)C(C)(C)N(Cc2ccc(F)c(F)c2)C3=O)n1 [WX003] | 27 nM | 0.37 nM | – | – | –
CC1(C)c2sc(-c3ccnc(NC4CCOCC4)n3)nc2C(=O)N1Cc1cccc(F)c1 [WX004] | 35 nM | 0.25 nM | – | – | –
Cc1cnc(Nc2ccnn2C)nc1-c1nc2c(s1)C(C)(C)N(Cc1cccc(Cl)c1)C2=O [WX005] | 8 nM | 0.05 nM | 468 nM · h/mpk | 1030 nM | –
Cc1cnc(Nc2ccnn2C)nc1-c1nc2c(s1)C(C)(C)N(Cc1cccc(F)c1)C2=O [WX006] | 7 nM | 0.3 nM | 530 nM · h/mpk | 1040 nM | body weight of assay animals ([2]; to the 28th day): did not decrease significantly; morbidity or death ([2]; to the 28th day): no morbidity or death; TGI (inhibition rate of tumor growth) ([2]; H358 xenograft, 28th day): 94%; clearance [1]: 23 mL/min/kg; Vd [1]: 1.7 L/kg; bioavailability [1]: 34%; half-life [1]: 60 min
CC1(C)c2sc(-c3ccnc(NC4CCOCC4)n3)nc2C(=O)N1Cc1cccc(Cl)c1 [WX007] | 26 nM | 0.39 nM | – | – | –

Now from value to molecule, other results behind:

IC50 (HT29 tumor cells) | IC50 (ERK2 kinase) | Oral DNAUC (AUCPO/Dose) [1] | Cmax [1] | Compound | other results
58 nM | 0.52 nM | – | – | Cc1cnc(Nc2ccnn2C(F)F)nc1-c1nc2c(s1)C(C)(C)N(Cc1cccc(F)c1)C2=O [WX008] | –
6 nM | 0.64 nM | 820 nM · h/mpk | 1170 nM | [2H]C([2H])([2H])n1nccc1Nc1ncc(C)c(-c2nc3c(s2)C(C)(C)N(Cc2cccc(F)c2)C3=O)n1 [WX009] | clearance [1]: 28 mL/min/kg; Vd [1]: 1.7 L/kg; bioavailability [1]: 67%; half-life [1]: 102 min
27 nM | 0.14 nM | – | – | Cc1cc(Nc2ncc(C)c(-c3nc4c(s3)C(C)(C)N(Cc3cccc(F)c3)C4=O)n2)n(C)n1 [WX010] | –
26 nM | 0.98 nM | – | – | COCCn1nccc1Nc1ncc(C)c(-c2nc3c(s2)C(C)(C)N(Cc2cccc(F)c2)C3=O)n1 [WX011] | –
37 nM | 0.48 nM | – | – | Cc1cnc(Nc2ccnn2C2CC2)nc1-c1nc2c(s1)C(C)(C)N(Cc1cccc(F)c1)C2=O [WX012] | –
18 nM | 0.19 nM | – | – | COc1cc(Nc2ncc(C)c(-c3nc4c(s3)C(C)(C)N(Cc3cccc(F)c3)C4=O)n2)n(C)n1 [WX013] | –
